Read-outs that look alike come from different tables or passages of the source.
Target: T1, human 5-HT1A-serotoninergic receptor (Homo sapiens, UniProt P08908)
T1 construct: expressed in transfected cells; host or cells: HeLa cells (membranes)
T1 sequence (P08908 1-422): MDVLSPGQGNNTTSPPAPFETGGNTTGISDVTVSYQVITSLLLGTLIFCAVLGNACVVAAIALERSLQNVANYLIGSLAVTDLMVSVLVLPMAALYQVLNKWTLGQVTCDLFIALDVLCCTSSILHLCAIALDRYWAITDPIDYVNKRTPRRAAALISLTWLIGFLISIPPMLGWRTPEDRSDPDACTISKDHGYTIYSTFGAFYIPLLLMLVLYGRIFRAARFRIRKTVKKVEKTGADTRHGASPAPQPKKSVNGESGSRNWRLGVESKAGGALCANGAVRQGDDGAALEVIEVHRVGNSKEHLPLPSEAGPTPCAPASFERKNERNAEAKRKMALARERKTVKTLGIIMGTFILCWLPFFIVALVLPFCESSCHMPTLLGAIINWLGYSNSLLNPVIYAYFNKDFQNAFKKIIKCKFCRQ
Experiment: Radioligand binding ([3H]8-OH-DPAT) on membranes of HeLa cells expressing cloned 5-HT1A receptor
Settings: read-out: Affinity (Ki) 5-HT1A
Description: The determination of affinity for cloned subtypes of human α1 adrenergic receptors was performed in membranes from CHO cells (chinese hamster ovary cells) transfected by electroporation with DNA expressing the genes encoding each α1-adrenoceptor subtype, namely α1a, α1b and α1d.. Cloning and stable expression of the human α1-adrenoceptor gene were performed as previously described (Testa et al., Pharmacol. Comm. 6, 79-86 (1995)). CHO cell membranes were incubated in […] Tris pH 7.4 with 0.2 nM [^3H]prazosin, in a final volume of 1.02 ml for 30 minutes at 25°C, in the absence or presence of competing drugs (1 pM-10 µM). Non-specific binding was determined in the presence of 10 µM phentolamine. Incubation was stopped by addition of ice-cold Tris buffer and rapid filtration through 0.2% polyethyleneimine pretreated Schleicher & Schuell GF52 filters. Genomic clone G-21 coding for the human 5-HT1A-serotoninergic receptor was stably transfected in a human cell line (HeLa) (Fargin et al., J. Biol. Chem. 284, 14848-14852 (1989)). The HeLa cells were grown as monolayers in Dulbecco's modified Eagle's medium (DMEM), supplemented with 10% foetal calf serum and gentamicin (100 µg/ml), 5% CO2, at 37°C. The cells were detached from the growth flask at 95% confluence by a cell scraper and were lysed in ice-cold 5 mM Tris and 5-mM EDTA buffer (pH 7.4). The homogenates were centrifuged at 40000 x g x 20 minutes and the membranes were re-suspended in a small volume of ice-cold 5 mM Tris and 5-mM EDTA buffer (pH 7.4) and immediately frozen and stored at -70°C until use. On the experiment day, the cell membranes were re-suspended in a buffer containing 50 mM Tris (pH 7.4), 2.5 mM MgCl2, 10 µM pargyline (Fargin et al., Nature 335, 358-360 (1988)). […] The incubation was stopped by addition of ice-cold Tris buffer and rapid filtration through 0.2%-polyethyleneimine-pretreated Schleicher & Schuell filters. The inhibition of specific binding of the radioligands by the drugs was analysed to estimate the IC50 value by using the non-linear curve-fitting programme Allfit (De Lean et al., Am. J. Physiol. 235, E97-E102 (1978)). The IC50 value was converted to an affinity constant (Ki) by the equation of Cheng & Prusoff (Biochem. Pharmacol. 22, 3099-3108 (1973)). Data were expressed as mean of Ki.

[1] = human cloned receptor, HeLa cell membranes, 1.2 nM [3H]8-OH-DPAT

| Compound | Ki [1] [nM] | Ki [nM] |
| --- | --- | --- |
| Cc1ccc(C)c(N2CCN(CCN3C(=O)CC4(CCCC4)CC3=O)CC2)c1 [Example 5, 8-{2-[4-(2,5-Dimethylphenyl)-1-piperazinyl]-ethyl}-8-azaspiro[4.5]decane-7,9-dione] | 275 |  |
| O=C1CC2(CCCC2)C(=O)N1CCN1CCN(c2cc(Cl)ccc2Cl)CC1 [Example 14, 2-{2-[4-(2,5-Dichlorophenyl)-1-piperazinyl]-ethyl}-2-azaspiro[4.4]nonane-1,3-dione] |  | > 1000 |
| O=C1CC2(CCCC2)CC(=O)N1CCN1CCN(c2cc(Cl)ccc2Cl)CC1 [Example 1, 8-{2-[4-(2,5-Dichlorophenyl)-1-piperazinyl]-ethyl}-8-azaspiro[4.5]decane-7,9-dione] | 36 |  |
| CN(CCN1C(=O)CC2(CCCC2)CC1=O)CCN(C)c1cc(Cl)ccc1Cl [Example 18, N-(2,5-Dichlorophenyl)-N'-{2-(7,9-dioxo-8-azaspiro[4.5]decane-8-yl)-ethyl}-N,N'-dimethyl-1,2-diaminoethane] | 433 |  |
| O=C1CCCC(=O)N1CCN1CCN(c2cc(Cl)ccc2Cl)CC1 [Example 2, 1-{2-[4-(2,5-Dichlorophenyl)-1-piperazinyl]-ethyl}-piperidinyl-2,6-dione] | 258 |  |
| O=C1CC2(C=CN1CCN1CCN(c3cc(Cl)ccc3Cl)CC1)CCCC2 [Example 20, 8-{2-[4-(2,5-Dichlorophenyl)-1-piperazinyl]-ethyl}-8-azaspiro[4.5]dec-9,10-en-7-one] | 91.9 |  |
| O=C1CC2(CCCC2)CCN1CCN1CCN(c2cc(F)c(F)cc2F)CC1 [Example 24, 8-{2-[4-(2,4,5-Trifluorophenyl)-1-piperazinyl]-ethyl}-8-azaspiro[4.5]decane-7-one] |  | 214 |
| CCC1(C)CC(=O)N(CCN2CCN(c3cc(Cl)ccc3Cl)CC2)C(=O)C1 [Example 13, 1-{2-[4-(2,5-Dichlorophenyl)-1-piperazinyl]-ethyl}-4-ethyl-4-methylpiperidinyl-2,6-dione] | 104 |  |
| O=C1CC2(CCCCC2)CC(=O)N1CCN1CCN(c2cc(Cl)ccc2Cl)CC1 [Example 11, 3-{2-[4-(2,5-Dichlorophenyl)-1-piperazinyl]-ethyl}-3-azaspiro[5.5]undecane-2,4-dione] | 128 |  |
| O=C1CC2(CCCC2)CC(=O)N1CCN1CCC(c2cc(Cl)ccc2Cl)CC1 [Example 17, 8-{2-[4-(2,5-Dichlorophenyl)-1-piperidinyl]-ethyl}-8-azaspiro[4.5]decane-7,9-dione] | 248 |  |

Results, then the compound that gave them:

| Ki [1] [nM] | Ki [nM] | Compound |
| --- | --- | --- |
| 62.2 |  | O=C1CC2(CCCC2)CC(=O)N1CCN1CCN(c2cc(Br)ccc2Br)CC1 [Example 7, 8-{2-[4-(2,5-Dibromophenyl)-1-piperazinyl]-ethyl}-8-azaspiro[4.5]decane-7,9-dione] |
| 207 |  | CC(CN1CCN(c2cc(Cl)ccc2Cl)CC1)N1C(=O)CC2(CCCC2)CC1=O (stereo not drawn) [Example 16, 8-{2-[4-(2,5-Dichlorophenyl)-1-piperazinyl]-1-methylethyl}-8-azaspiro[4.5]decane-7,9-dione] |
| 29.6 |  | N#Cc1ccc(Cl)cc1N1CCN(CCN2C(=O)CC3(CCCC3)CC2=O)CC1 [Example 8, 8-{2-[4-(5-Chloro-2-cyanophenyl)-1-piperazinyl]-ethyl}-8-azaspiro[4.5]decane-7,9-dione] |
|  | > 1000 | O=C1CC2(CCC2)CC(=O)N1CCN1CCN(c2cc(Cl)ccc2Cl)CC1 [Example 15, 7-{2-[4-(2,5-Dichlorophenyl)-1-piperazinyl]-ethyl}-7-azaspiro[3.5]nonane-6,8-dione] |
| 12.1 |  | O=C1CC2(CCCC2)CC(=O)N1CCN1CCN(c2cc(F)ccc2Cl)CC1 [Example 9, 8-{2-[4-(2-Chloro-5-fluorophenyl)-1-piperazinyl]-ethyl}-8-azaspiro[4.5]decane-7,9-dione] |
| 160 |  | O=C1CC2(CCCC2)CC(=O)N1CCN1CCN(c2cc(C(F)(F)F)ccc2F)CC1 [Example 6, 8-{2-[4-(2-Fluoro-5-trifluoromethylphenyl)-1-piperazinyl]-ethyl}-8-azaspiro[4.5]decane-7,9-dione] |
| 804 |  | O=C1CC2(CCCC2)CC(=O)N1CCN1CCN(c2cc(I)ccc2Cl)CC1 [Example 10, 8-{2-[4-(2-Chloro-5-iodophenyl)-1-piperazinyl]-ethyl}-8-azaspiro[4.5]decane-7,9-dione] |
| 52.3 |  | Cc1ccc(F)c(N2CCN(CCN3C(=O)CC4(CCCC4)CC3=O)CC2)c1 [Example 4, 8-{2-[4-(2-Fluoro-5-methylphenyl)-1-piperazinyl]-ethyl}-8-azaspiro[4.5]decane-7,9-dione] |
